Assay results from patent publication US20110250686A1 (CELLARTIS AB, priority 2006, published 2011).

System: hepatocyte-like cells
Settings: against VitroHES reference protocol

## C[C@@H]1C[C@H]2[C@@H]3CCC4=CC(=O)C=C[C@]4(C)[C@@]3(F)[C@@H](O)C[C@]2(C)[C@@]1(O)C(=O)CO [Dexamethasone]
  morphology / appearance of hepatocyte-like cells: improved the appearance of the HCLC
